pIC50: −log10 of the molar value.
Experiments:
EGFR = EGFR (Homo sapiens (Human), UniProt P00533); assay: In vitro EGFR kinase activity inhibition assay (Kinase-Glo Plus luminescence); assay type: biochemical; details: 10 μM ATP, poly(Glu,Tyr) substrate
Description: (§1) • 1. […] It measures kinase activity by quantitating the amount of ATP remaining in solution following a kinase reaction. The luminescent signal from the assay is correlated with the amount of ATP present and is inversely correlated with the amount of kinase activity. […] The luminescence data were analyzed using the computer software, Graphpad Prism. […] The values of % activity versus a series of compound concentrations were then plotted using non-linear regression analysis of Sigmoidal dose-response curve generated with the equation Y=B+(T−B)/1+10^((LogEC50−X)×Hill Slope), where Y=percent activity, B=minimum percent activity, T=maximum percent activity, X=logarithm of compound and Hill Slope=slope factor or Hill coefficient. The IC50 value was determined by the concentration causing a half-maximal percent activity.

EGFR(T790M/L858R) = EGFR(T790M/L858R) (Homo sapiens (Human), UniProt P00533, L858R/T790M); assay: In vitro EGFR(T790M/L858R) kinase activity inhibition assay (Kinase-Glo Plus luminescence); assay type: biochemical; details: 10 μM ATP, poly(Glu,Tyr) substrate
Sequence of EGFR(T790M/L858R) (P00533 25-1210 T790M/L858R): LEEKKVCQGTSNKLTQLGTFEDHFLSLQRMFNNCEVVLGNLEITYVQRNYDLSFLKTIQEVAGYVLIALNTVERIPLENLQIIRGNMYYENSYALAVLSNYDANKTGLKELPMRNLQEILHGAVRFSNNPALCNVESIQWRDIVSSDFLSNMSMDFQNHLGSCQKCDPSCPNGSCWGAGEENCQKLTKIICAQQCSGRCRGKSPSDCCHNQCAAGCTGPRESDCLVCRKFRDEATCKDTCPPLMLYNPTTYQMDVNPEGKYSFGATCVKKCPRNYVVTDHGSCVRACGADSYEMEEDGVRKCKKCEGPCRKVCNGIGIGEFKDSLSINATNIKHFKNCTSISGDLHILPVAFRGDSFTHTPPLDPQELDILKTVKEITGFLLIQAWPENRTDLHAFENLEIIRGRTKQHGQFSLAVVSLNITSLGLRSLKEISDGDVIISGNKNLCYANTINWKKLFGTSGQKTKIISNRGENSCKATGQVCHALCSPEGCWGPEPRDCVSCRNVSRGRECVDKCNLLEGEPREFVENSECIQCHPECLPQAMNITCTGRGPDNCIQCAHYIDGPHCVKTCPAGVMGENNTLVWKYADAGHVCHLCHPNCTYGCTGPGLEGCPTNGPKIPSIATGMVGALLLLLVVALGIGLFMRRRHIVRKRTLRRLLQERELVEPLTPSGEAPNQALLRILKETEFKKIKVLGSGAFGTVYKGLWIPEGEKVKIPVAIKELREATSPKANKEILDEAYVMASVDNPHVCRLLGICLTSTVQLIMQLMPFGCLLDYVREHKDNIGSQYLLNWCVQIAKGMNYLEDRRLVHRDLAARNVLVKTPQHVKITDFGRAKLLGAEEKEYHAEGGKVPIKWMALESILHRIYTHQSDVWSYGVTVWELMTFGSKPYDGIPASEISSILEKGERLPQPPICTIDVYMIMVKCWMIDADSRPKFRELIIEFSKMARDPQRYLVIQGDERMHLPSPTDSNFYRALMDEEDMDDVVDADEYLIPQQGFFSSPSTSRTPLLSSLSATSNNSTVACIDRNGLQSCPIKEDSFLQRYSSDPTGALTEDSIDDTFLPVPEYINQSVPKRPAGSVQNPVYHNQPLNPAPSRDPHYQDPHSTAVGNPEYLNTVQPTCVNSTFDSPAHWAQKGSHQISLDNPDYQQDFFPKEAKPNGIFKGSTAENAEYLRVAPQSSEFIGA
Description: as §1

SK-Br-3 Cell line = assay: Cell proliferation assay (MTT), SK-Br-3; assay type: cell-based; details: Homo sapiens, 72 hours treatment
Description: (§2) A representative number of compounds were assayed against different cancer cell lines such as NCI-H-1975 or A431 using the cell proliferation assays:
(§3) Cell Proliferation Assays: • 1. 5×10^3 cells per well in 100 μl of medium were seeded in 96-well plate, here the medium contained 5% FBS • 2. 24 hours later, 100 μl fresh medium was added with various concentrations of compounds into each well, while the medium here was free of FBS • 3. After the cells were treated with compounds for 72 hours, 20 μl MTT (5 mg/ml) was added into each well, and then the assay plate was incubated at 37° C. for 4 more hours. • 4. The assay plate was centrifuged at 800 g for 10 min. The medium was aspirated, 150 μl DMSO was added into each well. The plate was gently shaked for 10 min. • 5. The absorbance at 570 nm was measured on the plate reader. • 6. IR %=(WC−WT)/WC*100%.

A431 Cell line = assay: Cell proliferation assay (MTT), A431; assay type: cell-based; details: Homo sapiens, A-431, 72 hours treatment
Description: as §2, §3

TA1535 = assay: Ames Assay, plate incorporation, strain TA1535; details: with S9 mixture
Description: (§4) A representative number of compounds were tested in Ames Assay for assess the mutagenic potential.
(§5) Preparations of culture media/plates and reagents: 0.5 mmol L-histidine-0.5 mmol/L biotin solution; 20% glucose solution; nutrient broth; KCl salt solution (1.65 M KCl+0.4 M MgCl2); 0.2 M phosphate buffer (pH 7.4); co-factors (NADP; glucose 6-phosphate) for S9 mixture; top agar medium; minimal agar medium (Vogel-Bonner medium E); bottom agar medium.
(§6) Preparation of the enriched culture: Take nutrient broth 5 mL, added it to sterile tubes with the cryopreserved strain culture TA1535 and TA1537. After inoculation in nutrient broth, the cultures were kept at 37° C. with oscillation of 100 times/min for 10 hours. The strain cultures should have about 1˜2×10^9 viable cells per milliliters.
(§7) Preparation of 10 ml S9 mixture: Co-factor mixture 9 mL by glucose 6-phosphate 42.3 mg, […] 14.2 mg, 6-phosphate dehydrogenase (3 unit/μl) 10 μl plus riboflavin (9.6 mg dissolved in 700 μL water), and then mixed with 1 ml of the induced rat S9.
(§8) Plate incorporation method: In the experiment, place 2 ml of the top agar medium containing 0.5 mmol/L histidine-0.5 mmol/L biotin into the test tubes kept in 45° C. water bath. Into a 1.5 ml sterile Eppendorf tube, it was added 0.1 ml of the bacterial strain in the enriched broth, 0.1 ml of the test compound solution and 0.5 ml of the S9 mixture, thoroughly mixed and incubated for 30 minutes at 37° C. with shaker speed at 150 rpm/min. The liquid mixture in the Eppendorf tube was added to the top agar medium. After mixing it was poured rapidly into the plates with bottom agar plate, turning the plates to allow uniform distribution. Initially placed horizontally for condensation and then placed invertly for 48 hours at 37° C. Count and record the number of revertant colonies per dish.
(§9) Experiment controls: In addition to the set of doses (3.3, 8.3, 33.3 and 66.6 μM) for the test compounds, here are the controls: blank control, sterile control, solvent control, positive mutagen control (2-aminoanthracene at 10 μg/dish).

TA1537 = assay: Ames Assay, plate incorporation, strain TA1537; details: with S9 mixture
Description: as §4, §5, §6, §7, §8, §9

TA1535 and TA1537 = assay: Ames Assay, overall mutagenic potential; details: TA1535 and TA1537, with S9 mixture, 3.3-66.6 μM
Description: as §4, §5, §6, §7
Plate incorporation method: In the experiment, place 2 ml of the top agar medium containing 0.5 mmol/L histidine-0.5 mmol/L biotin into the test tubes kept in 45° C. water bath. […]

[1] = system: NCI-H-1975 cell line xenograft; assay: In vivo subcutaneous NCI-H-1975 cell line xenograft model in nude mice; parameters: species or system Balb/c nude mice
Description: A representative protocol for the in vivo experiment is as followed to establish the subcutaneous NCI-H-1975 cell line xenograft model in nude mice and to evaluate the in vivo therapeutic efficacy of the compounds: Animals: Male Balb/c nude mice (6˜8 weeks old) were obtained from SLAC Laboratory Animal, Shanghai, China. Animals were maintained under SPF conditions in sterile filter top cages and housed on HEPA-filtered ventilated racks. Animals received sterile rodent chow and water ad libitum. Cell line: NCI-H-1975 cell line, S.c. Xenograft Models in Athymic Mice: Cells for implantation into athymic mice were harvested and pelleted by centrifugation at 1200 r/min for 5 min. Cells were washed once and resuspended in sterile PBS buffer with 5×10^6 in 200 μl. Then cells were implanted s.c. into the right scapular region of each mouse and allowed to grow to 200-300 mm^3 before the administration of compound. Preparation of the Dose Formulation: each compound was suspensioned in 0.5% CMC-Na. Randomization: When tumor volumes approach 200-300 mm^3, the mice will be randomized into 5 groups according to the tumor volume. The day will be denoted as D1 and the treatments will be started at this day. Administered: Dose will be administered with oral gavage needle once daily for number of days. Treatment of compounds administered in 0.5% CMC—Na by p.o. gavage was initiated when tumors were 200˜300 mm^3 in volume. Observations: After inoculation, the animals will be checked daily for morbidity and mortality. At the time of routine monitoring, the animals will be checked for any effects of tumor growth and treatments on normal behavior such as mobility, body weight gain/loss (body weights will be measured twice weekly or every other day), eye/hair matting and any other abnormal effect. Death and observed clinical signs will be recorded on the basis of the numbers of animals within each subset. Tumor Size Measurements: Tumor volume was determined by measurement with electronic vernier calipers every 3 days and tumor volume was calculated as the product of its length×width^2×0.5. Effect studies: Tumor volume was expressed on indicated days as the mean tumor volume±SD. Percentage (%) inhibition values were measured for drug-treated mice compared with vehicle-treated mice and are calculated as follows: Tumor growth inhibition(TGI, %)=100−[MTV treated/MTV control]×100. Significant differences between the treated versus the control groups (p<0.05) were determined using t test. At study endpoint, after blood collection, mice were practicsed euthanasia by cervical dislocation, the tumor tissue was collected first, then abdominal cavity was cut open, liver and spleen were excised, then weight after the gallblader was removed respectively. Organ weight and Organ/body weight ratios between the treated versus the control groups were compared. Ratios was calculated as follows: Ratios=Organ weight/(body weight-tumor weight). Both organ weight and Organ/body weight ratios were also expressed as mean±SD, and significant differences between the treated versus the control groups (p<0.05) were determined using t test.
The following Table D lists compounds representative of the invention and their activity in subcutaneous NCI-H-1975 cell line xenograft model in nude mice described above. Compound 11 and Dacomitinib were dosed at 15 mg/kg by oral gavage once daily for number of days. Tumor growth inhibition (TGI, %) was calculated.

[2] = Day 3, 15 mg/kg oral gavage once daily
[3] = Day 7, 15 mg/kg oral gavage once daily

Sequence of EGFR (P00533 25-1210): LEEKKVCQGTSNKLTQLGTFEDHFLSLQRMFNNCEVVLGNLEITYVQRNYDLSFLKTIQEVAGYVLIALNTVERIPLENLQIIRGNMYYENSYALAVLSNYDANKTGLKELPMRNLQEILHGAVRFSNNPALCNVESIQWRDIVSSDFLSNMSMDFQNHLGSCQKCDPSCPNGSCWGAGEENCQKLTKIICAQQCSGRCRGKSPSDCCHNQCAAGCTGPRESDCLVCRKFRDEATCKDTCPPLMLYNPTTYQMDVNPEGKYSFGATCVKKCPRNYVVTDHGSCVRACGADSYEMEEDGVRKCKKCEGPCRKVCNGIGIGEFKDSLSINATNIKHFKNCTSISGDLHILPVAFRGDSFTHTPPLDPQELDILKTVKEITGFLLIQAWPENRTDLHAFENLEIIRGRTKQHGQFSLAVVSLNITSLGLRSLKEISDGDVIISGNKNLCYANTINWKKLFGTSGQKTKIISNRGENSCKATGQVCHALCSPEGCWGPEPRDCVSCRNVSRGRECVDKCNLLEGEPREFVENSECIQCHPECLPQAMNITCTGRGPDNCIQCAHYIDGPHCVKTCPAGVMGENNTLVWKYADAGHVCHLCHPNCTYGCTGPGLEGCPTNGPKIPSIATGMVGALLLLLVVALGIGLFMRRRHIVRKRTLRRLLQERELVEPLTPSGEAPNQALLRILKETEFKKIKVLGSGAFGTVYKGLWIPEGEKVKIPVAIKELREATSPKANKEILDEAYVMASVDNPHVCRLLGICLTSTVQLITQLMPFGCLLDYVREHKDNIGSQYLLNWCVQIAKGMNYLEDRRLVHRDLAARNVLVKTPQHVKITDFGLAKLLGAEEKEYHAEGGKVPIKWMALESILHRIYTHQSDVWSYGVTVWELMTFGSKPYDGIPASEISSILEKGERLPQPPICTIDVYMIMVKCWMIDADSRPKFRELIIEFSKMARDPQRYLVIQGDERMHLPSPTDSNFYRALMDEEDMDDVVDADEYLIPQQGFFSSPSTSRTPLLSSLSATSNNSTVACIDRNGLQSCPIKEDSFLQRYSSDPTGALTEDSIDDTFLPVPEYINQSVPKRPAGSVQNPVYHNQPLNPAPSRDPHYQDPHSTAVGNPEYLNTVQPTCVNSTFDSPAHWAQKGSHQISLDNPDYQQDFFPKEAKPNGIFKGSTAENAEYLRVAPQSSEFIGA

Row | SMILES | pIC50 (EGFR) | pIC50 (EGFR(T790M/L858R)) | pIC50 (SK-Br-3 Cell line) | pIC50 (A431 Cell line) | TA1535 Colony number (TA1535; 3.33 uM) | TA1535 Colony number (TA1535; 8.33 uM) | TA1535 Colony number (TA1535; 33.3 uM) | TA1535 Colony number (TA1535; 66.6 uM) | TA1537 Colony number (TA1537; 3.33 uM) | TA1537 Colony number (TA1537; 8.33 uM) | TA1537 Colony number (TA1537; 33.3 uM) | TA1537 Colony number (TA1537; 66.6 uM) | Ames Assay result (mutagenic potential) (TA1535 and TA1537) | Tumor growth inhibition compared with Dacomitinib ([1]; 15 mg/kg oral gavage once daily) | Tumor growth inhibition (TGI, %) [1, 2] [%] | Tumor growth inhibition (TGI, %) [1, 3] [%] | TA1535 Colony number (TA1535; 17.27 uM (10 μg/dish)) | TA1537 Colony number (TA1537; 17.27 uM (10 μg/dish))
1 | C#Cc1cccc(Nc2ncnc3cc(OC)c(NC(=O)/C=C/CN4CCCCC4)cc23)c1 [Compound 12, (E)-N-(4-((3-ethynylphenyl)amino)-7-methoxyquinazolin-6-yl)-4-(piperidin-1-yl)but-2-enamide] | > 8.00 | > 7.00 | 6.94 | 5.31 | 17 | 9 | 17 | 9 | 8 | 22 | 47 | 66 | positive | – | – | – | – | –
2 | C#Cc1cccc(Nc2ncnc3cc(OCC)c(NC(=O)/C=C/CN4CCCCC4)cc23)c1 [Compound 11, (E)-N-(7-ethoxy-4-((3-ethynylphenyl)amino)quinazolin-6-yl)-4-(piperidin-1-yl)but-2-enamide] | 8.77 | 7.66 | 7.07 | 5.53 | 10 | 13 | 18 | 12 | 14 | 12 | 23 | 22 | negative | significant better tumor growth inhibition compared with Dacomitinib | 30.11 | 83.25 | – | –
3 | COc1cc2ncnc(Nc3ccc(F)c(Cl)c3)c2cc1NC(=O)/C=C/CN1CCCCC1 [Dacomitinib, reference compound] | – | – | 6.65 | 4.71 | – | – | – | – | – | – | – | – | – | – | 19.86 | 75.36 | – | –
4 | Nc1ccc2cc3ccccc3cc2c1 [2-aminoanthracene, reference compound] | – | – | – | – | – | – | – | – | – | – | – | – | – | – | – | – | 205 | 260

— US9388160B2, “Quinazoline derivatives as kinases inhibitors and methods of use thereof” (TELIGENE LTD., priority 2011, dated 2016)
